Experimental data: publication PMC2706308 (Biochimica et biophysica acta, 2009)
Where a SMILES comes first, the peptide text is derived from it. The star is where a group is joined. Cbz = O=C(OCc1ccccc1)*

Target: 20S proteasome (rat liver) (Rattus norvegicus, UniProt P18421+P28075)
Assay: inhibition of suc-LLVY-AMC hydrolysis
Type: biochemical
Conditions: read-out: % inhibition at 10 uM

inhibition at 10 µM: 90%
Compound: CC(C)C[C@@H](C=O)NC(=O)[C@H](CC(C)C)NC(=O)[C@H](CC(C)C)NC(=O)OCc1ccccc1 [MG-132] (Cbz-Leu-Leu-Leu-aldehyde)
